According to ChEMBL document CHEMBL1201862, “PubChem BioAssay data set” (2004):
Activity calls are given as the source filed them. Cut-off read from the data, not from the text of the source, for most assays here: actives have a measured EC50 and inactives only a lower limit.

Key:
INS1 = test: beta cell apoptosis inhibitors, cytokine rescue, dose response, luminescence, retest (AID 449756); format: functional, cell-based; conditions: Rattus norvegicus;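 note: cell death triggered by IL-1 beta plus TNF-alpha plus IFN-gamma mixture; protective hits raise ATP signal compared with cytokine alone wells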
[1] = target: T1, Heat shock factor protein 1 (Mus musculus, UniProt P38532); test: HSF1 potentiators in luciferase reporter cells, confirmation, cell-based, NIH3T3, luminescence, dose retest (AID 435004); format: functional;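 note: stress induced by proteasome inhibitor MG132 added 30 min after compound; luciferase reporter driven by HSF1 response element in NIH3T3 cells; actives raise luminescence as potentiators of the MG132 stress response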
T1 sequence (P38532 whole entry): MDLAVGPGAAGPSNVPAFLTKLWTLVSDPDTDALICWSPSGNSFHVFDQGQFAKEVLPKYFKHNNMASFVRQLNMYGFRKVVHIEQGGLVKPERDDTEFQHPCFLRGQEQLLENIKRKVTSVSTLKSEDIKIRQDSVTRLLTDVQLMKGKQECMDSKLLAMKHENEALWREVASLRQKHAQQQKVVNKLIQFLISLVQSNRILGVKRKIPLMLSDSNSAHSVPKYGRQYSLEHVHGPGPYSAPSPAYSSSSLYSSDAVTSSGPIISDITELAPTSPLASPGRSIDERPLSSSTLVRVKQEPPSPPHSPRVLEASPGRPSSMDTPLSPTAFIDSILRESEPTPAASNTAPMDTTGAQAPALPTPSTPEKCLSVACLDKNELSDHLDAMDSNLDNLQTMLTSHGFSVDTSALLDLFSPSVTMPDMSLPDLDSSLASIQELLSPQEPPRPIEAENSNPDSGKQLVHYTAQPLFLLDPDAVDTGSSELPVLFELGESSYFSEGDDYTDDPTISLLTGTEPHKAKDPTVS

[2] = inhibitors of firefly luciferase expression or activity, dose response, H4 neuroglioma cells, luminescence (AID 1990); format: functional, cell-based
[3] = Luminescence Cell-Based Dose Response HTS to Identify Inhibitors of 5'UTR Stem-Loop Driven Prion Protein mRNA Translation in H4 Neuroglioblastoma Cells. [Related pubchem assays: 1827 (Project Summary), 1813 (Primary HTS)]; format: functional
[4] = inhibitors of SNCA 5'UTR-driven reporter translation, confirmation, H4 neuroglioma cells, luminescence (AID 1988); format: functional, cell-based
[5] = HEp-2 cell cytotoxicity, dose response, cytotoxicity control for RSV inhibitor project, HTS (AID 2410); format: functional; conditions: human respiratory syncytial virus
[6] = target: T2, Corticotropin-releasing factor receptor 2/Corticotropin-releasing factor-binding protein (Homo sapiens, UniProt P24387+Q13324); test: Dose Response confirmation of uHTS hits for small molecule antagonists of the CRF-binding protein and CRF-R2 receptor complex.; format: functional; conditions: read-out: IC50_Mean
T2 sequence (Q13324 whole entry): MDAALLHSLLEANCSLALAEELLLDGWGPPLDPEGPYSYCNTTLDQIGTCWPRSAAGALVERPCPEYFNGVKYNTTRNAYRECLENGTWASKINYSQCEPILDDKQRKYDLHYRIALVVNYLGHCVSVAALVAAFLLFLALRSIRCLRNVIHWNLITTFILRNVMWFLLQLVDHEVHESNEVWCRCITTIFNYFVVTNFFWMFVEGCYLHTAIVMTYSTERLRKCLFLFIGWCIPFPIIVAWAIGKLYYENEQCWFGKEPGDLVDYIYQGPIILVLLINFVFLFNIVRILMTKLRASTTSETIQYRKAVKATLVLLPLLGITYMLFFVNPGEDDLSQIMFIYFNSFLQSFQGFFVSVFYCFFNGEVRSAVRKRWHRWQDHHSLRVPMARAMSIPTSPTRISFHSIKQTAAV
T2 sequence (P24387 whole entry): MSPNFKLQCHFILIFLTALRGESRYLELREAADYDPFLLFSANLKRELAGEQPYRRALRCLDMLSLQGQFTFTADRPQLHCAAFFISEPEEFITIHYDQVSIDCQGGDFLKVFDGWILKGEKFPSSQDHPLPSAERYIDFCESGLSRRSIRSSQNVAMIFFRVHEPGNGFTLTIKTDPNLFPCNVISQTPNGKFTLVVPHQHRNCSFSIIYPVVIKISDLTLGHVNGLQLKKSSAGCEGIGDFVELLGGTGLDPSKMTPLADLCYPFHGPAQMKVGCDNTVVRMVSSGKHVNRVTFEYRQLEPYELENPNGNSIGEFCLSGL

[7] = target: T2, Corticotropin-releasing factor receptor 2/Corticotropin-releasing factor-binding protein; test: activators of CRF receptor 2 with binding protein – uHTS hits, confirmation (AID 602473); format: functional; conditions: read-out: EC50_Mean
[8] = Luminescence Cell-Based Dose Retest to Confirm Inhibitors of Cancer Stem Cells. [Related pubchem assays (depositor defined):AID2717, AID2721]; format: functional; conditions: Homo sapiens

In the case of `CCCCCCSc1cc(-c2nc3ccc(C)cn3c2NCc2ccccc2)ccc1OC`, the AC50 (INS1) is reported as 6.87 µM (active).

In the case of `C=CCn1c(SCC(=O)Nc2cc(NC(C)=O)ccc2OC)nnc1-c1cccnc1`, the EC50 [1] is reported as > 260 µM (inactive).

With `CCNC(=O)Nc1cc(S(=O)(=O)Nc2ccc(OC)cc2)ccc1N1CCOCC1` the AC50 (INS1) was 3.3 µM (active).

With `CN(c1cccc(NC(=O)CN(c2cccc(Cl)c2)S(=O)(=O)c2ccc(Cl)cc2)c1)S(C)(=O)=O` the EC50 [1] was > 260 µM (inactive).

In the case of `CCc1ccccc1Nc1nc2ccccc2n1CC`, the EC50 [2] is reported as > 120 µM (not active), the EC50 [3] is reported as > 120 µM (not active) and the EC50 [4] is reported as 23 µM (active).

In the case of `C[C@@H]1CN([C@H](C)CO)C(=O)c2cc(NC(=O)Nc3ccc(C(F)(F)F)cc3)ccc2O[C@H]1CN(C)S(=O)(=O)c1cccs1`, the AC50 (INS1) is reported as 27 µM (active).

With `Cc1nonc1C1CCCN1Cc1c[nH]nc1-c1ccc(-c2ccccc2)cc1` (stereo unspecified) the CC50 [5] was 21.4 µM (active) and the EC50 [1] was 35.2 µM (active).

In the case of `COc1cccc(C(=O)N2CCCC(CCC(=O)NCc3ccc(F)c(F)c3)C2)c1` (stereo unspecified), the IC50 [6] is reported as > 47.1 µM (inactive) and the EC50 [7] is reported as > 53 µM (inactive).

For `O=C(c1ccco1)N1N=C(c2ccc(Br)cc2)CC1c1ccco1` (stereo unspecified), the AC50 (INS1) was 19.8 µM (active).

For `CC(C)c1ccc(/C=C/C(=O)n2nnc3ccccc32)cc1`, the CC50 [5] was 25.1 µM (active) and the EC50 [1] was 14.2 µM (active).

In the case of `O=S(=O)(NC1c2cccc3cccc(c23)C1N1CCNCC1)c1ccc(Cl)cc1` (stereo unspecified), the EC50 [1] is reported as > 260 µM (inactive).

With `CCc1ccccc1N1C(=O)C2CC(C)=C(C)CC2C1=O` (stereo unspecified) the IC50 [6] was > 47.1 µM (inactive) and the EC50 [7] was > 53 µM (inactive).

In the case of `C#CCN(C#N)c1nc(NCC)nc(NC(C)C)n1`, the EC50 [2] is reported as 28.9 µM (active), the EC50 [3] is reported as > 120 µM (not active) and the EC50 [4] is reported as 16 µM (active).

With `COc1cc(OC)cc(C(=O)NCC(=O)OCc2cc(=O)oc3cc(OC)ccc23)c1` the IC50 [6] was > 47.1 µM (inactive) and the EC50 [7] was > 53 µM (inactive).

In the case of `O=C(CSc1nnc(C2COc3ccccc3O2)o1)NC1CCCCC1` (stereo unspecified), the IC50 [6] is reported as > 47.1 µM (inactive) and the EC50 [7] is reported as > 53 µM (inactive).

In the case of `CCOC(=O)Cn1nnnc1C(C(C)C)N(Cc1cc2c(C)cc(C)cc2[nH]c1=O)C1CCCC1` (stereo unspecified), the EC50 [1] is reported as 36.9 µM (active).

For `Cc1ccc(O)c(CNc2nccs2)c1`, the EC50 [1] was 20.5 µM (active).

In the case of `S=C(NCc1ccccc1)Nc1ccc(Cl)cc1`, the IC50 [6] is reported as > 47.1 µM (inactive) and the EC50 [7] is reported as > 53 µM (inactive).

In the case of `COc1ccc(C2C(C#N)=C(N)Oc3cc4c(cc32)OCO4)cc1` (stereo unspecified), the EC50 [2] is reported as > 120 µM (not active), the EC50 [3] is reported as 74 µM (active) and the EC50 [4] is reported as 10.9 µM (active).

With `COc1ccc(C(C(=O)NCC2CCCO2)N(C(=O)Cn2nnc3ccccc32)c2ccc(NC(C)=O)cc2)cc1OC` (stereo unspecified) the EC50 [1] was > 260 µM (inactive).

With `Cc1ccc2c(c1)c(-c1ccccc1)nc1nnnn12` the EC50 [2] was 17.5 µM (active), the EC50 [3] was > 120 µM (not active) and the EC50 [4] was 120 µM (active).

In the case of `CC1(C)C[C@@H]2C[C@@](C)(CN2C(=O)c2cc(COc3cccc(C(F)(F)F)c3)on2)C1`, the AC50 [8] is reported as 2.23 µM (active) and the AC50 (INS1) is reported as 11.6 µM (active).

For `COc1cccc(C2[C@H](C)C3(CCN2C)OCCO3)c1` (stereo partly specified), the EC50 [2] was > 120 µM (not active), the EC50 [3] was > 120 µM (not active) and the EC50 [4] was > 120 µM (not active).

For `COc1ccc(CNC(=O)CCC(=O)N2CC(C)Oc3ccccc32)cc1` (stereo unspecified), the EC50 [1] was > 260 µM (inactive).

With `Cc1cc(C)c2c(C)n[nH]c2n1` the AC50 (INS1) was > 260 µM (inactive).

In the case of `CCc1nc(N2CCN(S(=O)(=O)c3ccc(Br)cc3)CC2)c2c(C)c(C)sc2n1`, the EC50 [1] is reported as > 260 µM (inactive).

In the case of `CN(CCO)S(=O)(=O)c1ccc2c(c1)C(=NNC(N)=O)c1cc(S(=O)(=O)N(C)CCO)ccc1-2`, the IC50 [6] is reported as > 47.1 µM (inactive) and the EC50 [7] is reported as > 53 µM (inactive).
